In publication PMC12567500, “Activity-Based Profiling of Papain-like Cysteine Proteases During Late-Stage Leaf Senescence in Barley” (Plants, 2025):

How the values were obtained:
PLCPs from maize leaves = tested on: PLCPs from maize leaves; set-up: method as in PMID 31114592; conditions: ion-exchange chromatography; cited from earlier work
[1] = tested on: aleurain (a cysteine aminopeptidase); set-up: method as in PMID 12354950; conditions: cited from earlier work
[2] = tested on: PLCPs (cathepsin B-like activity, Fr. No 35–36 of barley leaf extract); experiment: Inhibition of Z-RR-AMC cleavage, pooled ion-exchange fractions Nos. 35–36; format: biochemical, barley (Hordeum vulgare L.); conditions: for IC50: substrate Z-RR-AMC 25 µM, Fr. No 35–36, senescing leaves six weeks after anthesis, pH 5.5, read-out: Effect/IC50
Experimental: (§1) Soluble proteins from barley leaves were extracted by homogenizing 10 g of leaf powder in 200 mL of ice-cold 50 mM Tris-HCl buffer (pH 7.4). Homogenates were filtered through one layer of Miracloth (Calbiochem, San Diego, CA, USA), centrifuged at 20,000× g for 20 min at 4 °C, and the supernatants were then filtered through a 0.45 μm filter (Avantor, Radnor, PA, USA). PLCPs were separated using anion-exchange chromatography on a DEAE-Sepharose CL-6B column (volume 6 mL) equilibrated with 0.05 M Tris-HCl buffer (pH 7.4). The column was washed with equilibration buffer, and bound material was eluted with a NaCl gradient (0.0–1.0 M). Collected fractions (1 mL each) were kept in an ice bath and used for measurements of peptidase activity and protein content. Fractions with active cysteine proteases were pooled. To reduce the NaCl concentration and exchange the buffer to 0.1 M Na-citrate (pH 5.5), three sequential filtration steps using 10 kDa ultrafiltration 15 mL units (Merck Millipore Ltd., Carrigtwohill, County Cork, Ireland) were utilized, and the samples were incubated with gentle shaking with 10 µM DCG-04 in the presence of 2 mM DTT for 3 h at 37 °C. […] The intensity of DCG-04-labeled barley cysteine proteases was determined in our previous experiments using streptavidin-horseradish peroxidase. After the incubation, proteins were rapidly precipitated using 80% acetone under inclusion of 100 mM NaCl.
(§2) Fluorogenic substrates Z-FR-AMC to determine cathepsin B- and L-like activity, and Z-RR-AMC to determine cathepsin B-like activity, were used. These substrates show fluorescence when AMC is released as a consequence of the hydrolysis of the Arg-AMC bond. The emitted fluorescence was detected with a SpectraMax M2 microplate reader (Molecular Devices, San Jose, CA, USA) with λex = 360 nm and λem = 460 nm. Before use, the substrates were dissolved in DMSO at 10 mM and stored at −20 °C. The measurements were made in 96-well black microplates (PerkinElmer Inc., Waltham, MA, USA), and each well contained a 100 μL final volume of 0.1 M Na-citrate buffer (pH 5.5) with DTT (2 mM), an aliquot of extract or chromatographic fraction, and fluorogenic substrate (25 μM). The reaction was initiated by the addition of the substrate. The final concentration of DMSO in microplate wells was 1% in all assays. The assays were conducted at room temperature, and relative fluorescence readings were recorded over a period of 10 min.
(§3) For the inhibition assays, an inhibitor (1 µL of stock solution of E-64 or bestatin in DMSO, or stock solution of 1,10-phenanthroline in ethanol) at different concentrations was added to the reaction mixture. […]

[3] = tested on: PLCPs (cathepsin B- and L-like activity, Fr. No 35–36 of barley leaf extract); experiment: Inhibition of Z-FR-AMC cleavage, pooled ion-exchange fractions Nos. 35–36; format: biochemical, barley (Hordeum vulgare L.); conditions: for IC50: substrate Z-FR-AMC 25 µM, Fr. No 35–36, senescing leaves six weeks after anthesis, pH 5.5, read-out: Effect/IC50
Experimental: as §1, §2, §3

[4] = molecular target: R-AMC cleaving aminopeptidase activity (Fr. No 26–27 of barley leaf extract); experiment: Inhibition of R-AMC cleaving aminopeptidase activity, pooled ion-exchange fractions Nos. 26–27; format: biochemical, barley (Hordeum vulgare L.); conditions: for IC50: substrate R-AMC 25 µM, Fr. No 26–27, senescing leaves six weeks after anthesis, pH 5.5, read-out: Effect/IC50; for Inhibition of R-AMC cleaving aminopeptidase activity (in words): substrate R-AMC, earlier eluting fractions
[5] = tested on: PLCPs (pooled fractions with active cysteine proteases); experiment: DCG-04 labeling of pooled active fractions, remaining PLCP activity checked with Z-FR-AMC and Z-RR-AMC; format: biochemical, barley (Hordeum vulgare L.); conditions: 10 µM DCG-04, 2 mM DTT, 3 h at 37 °C, 0.1 M Na-citrate pH 5.5
Experimental: as §1, with “After the incubation, proteins were rapidly precipitated using 80% acetone under inclusion of 100 mM NaCl.” left out

| Structure (SMILES) | Sensitivity of the single Z-FR-AMC cleavage activity peak to inhibition (in words) (PLCPs from maize leaves) | Inhibition of aleurain activity (in words) [1] | IC50 [2] [µM] | Inhibition of the activity of the peak fractions (in words) ([2]; substrate Z-RR-AMC, peak fractions of DEAE-Sepharose) | IC50 [3] [µM] | Inhibition of the activity of the peak fractions (in words) ([3]; substrate Z-FR-AMC, peak fractions of DEAE-Sepharose) | IC50 [4] [µM] | Inhibition of R-AMC cleaving aminopeptidase activity (in words) [4] | Remaining PLCP activity after incubation with probe [5] |
| --- | --- | --- | --- | --- | --- | --- | --- | --- | --- |
| CC(C)C[C@H](NC(=O)[C@H]1O[C@@H]1C(=O)O)C(=O)NCCCCN=C(N)N (relative stereo) [E-64, trans-epoxysuccinyl-L-leucylamido-(4-guanidino)butane] | sensitive | inhibited | 0.0091 ± 0.0022 | completely inhibited | 0.0153 ± 0.0041 | completely inhibited | > 25 |  |  |
| c1cnc2c(c1)ccc1cccnc12 [1,10-Phenanthroline, 1,10-phenanthroline] |  |  | > 5000 |  | > 5000 |  | 68.5 ± 12.2 | inhibited |  |
| CC(C)C[C@H](NC(=O)[C@@H](O)[C@H](N)Cc1ccccc1)C(=O)O [Bestatin, bestatin] |  |  | > 1000 |  | > 1000 |  | 247 ± 38 | inhibited |  |
| CCOC(=O)[C@H]1O[C@@H]1C(=O)N[C@@H](CC(C)C)C(=O)N[C@@H](Cc1ccc(O)cc1)C(=O)NCCCCCC(=O)N[C@@H](CCCCNC(=O)CCCC[C@@H]1SC[C@@H]2NC(=O)N[C@@H]21)C(N)=O [DCG-04] |  |  |  |  |  |  |  |  | No remaining PLCP activity |
